Measurements published in US20250288571A1 (Nested Therapeutics, Inc., priority 2024, published 2025).
Where “and” joins values, the source holds several entries; their conditions need not be identical. Equal values may be shown once. Read-outs that look alike come from different tables or passages of the source.

Key:
HCT116 cells = assay: HCT116 Cell Titer Glow assay (CTG); conditions: for viability at 1000 µM: read-out: CTG % cell viability 1000 uM HCT116.20, HCT116 cells, 72 hours, 1000 uM; for viability at 1000 µM / CTG % cell viability 1000 uM HCT116.20: percent cells remaining after treatment; for IC50: read-out: CTG IC50 (nM) Cell Line: HCT116.20
IPC298 cells = assay: IPC298 Cell Titer Glow assay (CTG); conditions: for viability at 100 µM: read-out: CTG % cell viability 100 uM IPC298.2, IPC298 cells, 72 hours, 100 uM; for IC50: read-out: CTG IC50 (nM) Cell Line: IPC298.2
Experimental: HCT116 and IPC298 Cell Titer Glow Assay (CTG)
HCT116 cells and IPC298 cells were diluted with culture medium to the desired density 500 cells/well and 40 μL of cell suspension were added into each well of 384-well cell culture plate. […] The plates were covered and stored at room temperature for 30 minutes without shaking and then the plates were transferred into a 37° C. 5% CO2 incubator overnight.
A 10 mM solution in dimethyl sulfoxide (DMSO) was prepared for each test compound. A 3 fold, 10-point dilution was prepared from the stock solution. 40 nl of each solution in 100% DMSO was added to the 384-well plate and diluted to a final 0.1% DMSO final concentration. The plates were then incubated for 72 hours (for both cell lines) at 37° C.
CellTiter-Glo® 2.0 Reagent (Promega, G9242) was removed from the refrigerator and equilibrated at room temperature (23° C.) for 60 minutes. The plates were then removed from the incubator and allowed to equilibrate to room temperature. 30 μL CellTiter-Glo® 2.0 Reagent were added to the assay plates, and spun 1 min/1000 rpm. The plates were allowed to stand for about 20 minutes before being read on Envision using a standard luminescence readout. DMSO was employed as negative control (High control, HC) and 1 uM Staurosporine was employed as positive control (Low control, LC).
The percent (%) inhibition at each concentration of compound was calculated based on the signal in the negative and positive control wells contained within each assay plate.

[1] = Homo sapiens, IPC-298, 72 h, percent cells remaining after treatment

SMILES	viability at 1000 µM (HCT116 cells; Homo sapiens, HCT-116, 72 h) [%]	IC50 (HCT116 cells; Homo sapiens, HCT-116, 72 h) [nM]	IC50 (IPC298 cells; Homo sapiens, IPC-298, 72 h) [nM]	further results
CNS(=O)(=O)Nc1nccc(Cc2cncc(OC3CCC(C)CC3)c2C)c1F (single isomer, unassigned) [Example 74, 3-fluoro-4-[[4-methyl-5-(4-methylcyclohexoxy)-3-pyridyl]methyl]-N-(methylsulfamoyl)pyridin-2-amine]	92.9	> 1000	> 1000	viability at 100 µM (IPC298 cells; [1]): 88.6%
CNS(=O)(=O)N1CCc2c(Cc3cncc(Nc4ccc(Cl)cc4F)c3C)ccnc21 [Example 43, 4-({5-[(4-chloro-2-fluorophenyl)amino]-4-methylpyridin-3-yl}methyl)-N-methyl-2H,3H-pyrrolo[2,3-b]pyridine-1-sulfonamide]	–	10 to 100	< 10	–
CNS(=O)(=O)Nc1nccc(Cc2cncc(-c3ccc(Cl)cc3F)c2C)c1F [Example 44, [(4-{[5-(4-chloro-2-fluorophenyl)-4-methylpyridin-3-yl]methyl}-3-fluoropyridin-2-yl)sulfamoyl](methyl)amine]	28	> 1000	10 to 100	–
CNS(=O)(=O)Nc1nccc(Cc2cncc(Nc3ccc(Cl)cc3F)c2C)c1OC [Example 45, 4-[[5-(4-chloro-2-fluoro-anilino)-4-methyl-3-pyridyl]methyl]-3-methoxy-N-(methylsulfamoyl)pyridin-2-amine]	–	10 to 100	–	–
CNS(=O)(=O)Nc1ccc(Cc2cncc(Oc3ncc(Cl)cc3F)c2C)cn1 [Example 46, 5-[[5-[(5-chloro-3-fluoro-2-pyridyl)oxy]-4-methyl-3-pyridyl]methyl]-N-(methylsulfamoyl)pyridin-2-amine]	–	> 1000	> 1000	CTG % cell viability 1000 uM HCT116.20 (HCT116 cells; HCT116 cells, 72 hours): 82.81, % and 79.54%; CTG % cell viability 1000 uM IPC298.2 (IPC298 cells; IPC298 cells, 72 hours, 1000 uM, percent cells remaining after treatment): 19.34%
CNS(=O)(=O)Nc1nccc(Cc2cncc(Nc3ccc(C4CC4)cc3F)c2C)c1F [Example 47, 4-[[5-(4-cyclopropyl-2-fluoro-anilino)-4-methyl-3-pyridyl]methyl]-3-fluoro-N-(methylsulfamoyl)pyridin-2-amine]	–	< 10	< 10	–
CNS(=O)(=O)Nc1ccc(Cc2cncc(Oc3ncc(Cl)cc3F)c2C)cn1 [Example 48, 5-[[5-[(5-chloro-3-fluoro-2-pyridyl)oxy]-4-methyl-3-pyridyl]methyl]-N-(methylsulfamoyl)pyridin-2-amine]	–	–	–	CTG % cell viability 1000 uM HCT116.20 (HCT116 cells; HCT116 cells, 72 hours): 17.49%; IC50 (HCT116 cells; HCT116 cells, 72 hours): > 1000 nM; IC50 (IPC298 cells; IPC298 cells, 72 hours): > 1000 nM
CNS(=O)(=O)Nc1nccc(Cc2cncc(Oc3ccc(Cl)cc3F)c2C)c1F [Example 49, [(4-{[5-(4-chloro-2-fluorophenoxy)-4-methylpyridin-3-yl]methyl}-3-fluoropyridin-2-yl)sulfamoyl](methyl)amine]	–	10 to 100	< 10	–
CNS(=O)(=O)Nc1nccc(Cc2cncc(Cc3ccc(Cl)cc3F)c2C)c1F [Example 50, {[4-({5-[(4-chloro-2-fluorophenyl)methyl]-4-methylpyridin-3-yl}methyl)-3-fluoropyridin-2-yl]sulfamoyl}(methyl)amine]	–	500 to 1000	10 to 100	–
CNS(=O)(=O)Nc1nccc(Cc2cncc(Oc3ccc(C(F)(F)F)cc3F)c2C)c1F [Example 51, 3-fluoro-4-[[5-[2-fluoro-4-(trifluoromethyl)phenoxy]-4-methyl-3-pyridyl]methyl]-N-(methylsulfamoyl)pyridin-2-amine]	–	100 to 500	–	–
CNS(=O)(=O)Nc1nccc(Cc2cnnc(Nc3ccc(Cl)cc3F)c2C)c1F [Example 52, N-(4-chloro-2-fluoro-phenyl)-5-[[3-fluoro-2-(methylsulfamoylamino)-4-pyridyl]methyl]-4-methyl-pyridazin-3-amine]	–	100 to 500	< 10	–
CNS(=O)(=O)Nc1nccc(Cc2cncc(Nc3ccc(Cl)cc3F)c2C)n1 [Example 53, 4-[[5-(4-chloro-2-fluoro-anilino)-4-methyl-3-pyridyl]methyl]-N-(methylsulfamoyl)pyrimidin-2-amine]	–	10 to 100	–	–
CNS(=O)(=O)Nc1nccc(Cc2cncc(Oc3cccc(Cl)c3F)c2)c1F [Example 54, 4-[[5-(3-chloro-2-fluoro-phenoxy)-3-pyridyl]methyl]-3-fluoro-N-(methylsulfamoyl)pyridin-2-amine]	81.2	> 1000	> 1000	viability at 1000 µM (IPC298 cells; Homo sapiens, IPC-298, 72 h, read-out: CTG % cell viability 1000 uM IPC298.2, IPC298 cells, 72 hours, 1000 uM, percent cells remaining after treatment): 70.1%
CNS(=O)(=O)Nc1nccc(Cc2cncc(Nc3ncccn3)c2C)c1F [Example 55, N-[5-[[3-fluoro-2-(methylsulfamoylamino)-4-pyridyl]methyl]-4-methyl-3-pyridyl]pyrimidin-2-amine]	80.9	> 1000	–	–
CNS(=O)(=O)Nc1nccc(Cc2cncc(-c3cc(Cl)ccc3F)c2C)c1F [Example 56, [(4-{[5-(5-chloro-2-fluorophenyl)-4-methylpyridin-3-yl]methyl}-3-fluoropyridin-2-yl)sulfamoyl](methyl)amine]	–	100 to 500	< 10	–
CNS(=O)(=O)Nc1nccc(Cc2cncc(-c3cccc(Cl)c3F)c2C)c1F [Example 57, [(4-{[5-(3-chloro-2-fluorophenyl)-4-methylpyridin-3-yl]methyl}-3-fluoropyridin-2-yl)sulfamoyl](methyl)amine]	56.8	> 1000	10 to 100	CTG % cell viability 1000 uM HCT116.20 (HCT116 cells; HCT116 cells, 72 hours): 45.51%
CNS(=O)(=O)Nc1nccc(Cc2cncc(Nc3ccc(C(C)C)cc3F)c2C)c1F [Example 58, 3-fluoro-4-[[5-(2-fluoro-4-isopropyl-anilino)-4-methyl-3-pyridyl]methyl]-N-(methylsulfamoyl)pyridin-2-amine]	–	< 10	< 10	–
CNS(=O)(=O)Nc1nccc(Cc2cncc(-n3ccc4cc(Cl)ccc43)c2)c1F [Example 59, [(4-{[5-(5-chloroindol-1-yl)pyridin-3-yl]methyl}-3-fluoropyridin-2-yl)sulfamoyl](methyl)amine]	–	100 to 500	10 to 100	–
C#Cc1cnc(Nc2cncc(Cc3ccnc(NS(=O)(=O)NC)c3F)c2C)c(F)c1 [Example 60, 4-[[5-[(5-ethynyl-3-fluoro-2-pyridyl)amino]-4-methyl-3-pyridyl]methyl]-3-fluoro-N-(methylsulfamoyl)pyridin-2-amine]	–	100 to 500	< 10	–
CNS(=O)(=O)Nc1nccc(Cc2cncc(Nc3ncc(Cl)cc3F)c2C)c1F [Example 62, 4-[[5-[(5-chloro-3-fluoro-2-pyridyl)amino]-4-methyl-3-pyridyl]methyl]-3-fluoro-N-(methylsulfamoyl)pyridin-2-amine]	46.4	> 1000	10 to 100	–
CNS(=O)(=O)Nc1nccc(Cc2cncc(O[C@H]3CC[C@H](C)CC3)c2C)c1F [Example 63, 3-fluoro-4-[[4-methyl-5-(4-methylcyclohexoxy)-3-pyridyl]methyl]-N-(methylsulfamoyl)pyridin-2-amine]	71.5	> 1000	> 1000	viability at 100 µM (IPC298 cells; [1]): 62.4%
CNS(=O)(=O)Nc1nccc(Cc2cncc(Oc3ccc(C(F)F)cc3F)c2C)c1F [Example 65, 4-[[5-[4-(difluoromethyl)-2-fluoro-phenoxy]-4-methyl-3-pyridyl]methyl]-3-fluoro-N-(methylsulfamoyl)pyridin-2-amine]	–	10 to 100	< 10	–
